≈ marks a conversion by molar mass, not a printed value.
Assays:
Anas platyrhynchos = conditions: acute; oral; unspecified; mortality
Apis mellifera = conditions: acute; duration: 48 hours; dermal; mortality
Bibionidae = conditions: chronic/long-term; duration: 28 days
Canidae = conditions: chronic; duration: 1 years; oral; Dog Other; food consumption
Daphnia magna = conditions: chronic/long-term; duration: 21 days; behavior
Folsomia candida = conditions: acute; duration: 14 days; mortality
Oncorhynchus mykiss = conditions: chronic/long-term; duration: 63 days
Perca sp. = conditions: acute; duration: 96 hours; mortality
Tagia sp. = conditions: acute; duration: 14 days; mortality
Adalia sp. = test: LR50; higher = less toxic; conditions: not reported; mortality
Typhlodromus pyri = test: LR50; higher = less toxic; conditions: not reported; mortality
[1] = reproduction developmental, reproduction

Work on CC(C)(C)c1ccc(CCOc2ncnc3ccccc23)cc1 [Fenazaquin] yielded an LD50 (Anas platyrhynchos) of over 2000 mg/kg, an LD50 (Apis mellifera) of 1.21 µg/piece and an NOEC (Bibionidae) of 0.0188 mg/kg. It also gave an NOAEL (Canidae) of 5 mg/kg-day, an LC50 (Colinus virginianus; acute, oral, diet, mortality) of over 1170 mg/kg-day and an LD50 (Colinus virginianus; acute, oral, mortality) of 1750 mg/kg. For the same compound, the NOEC (Colinus virginianus; [1]) was 80.3 mg/kg-day, the NOEC (Daphnia magna) was 0.0014 mg/L and the LC50 (Folsomia candida) was over 1000 mg/kg. For the same compound, the NOEC (Oncorhynchus mykiss) was 0.00096 mg/L, the LC50 (Perca sp.) was 3.2 ng/mL (≈ 0.0104 µM) and the LD50 (Rattus norvegicus; acute, oral, M, mortality) was 134 mg/kg. For the same compound, the NOAEL (Rattus norvegicus; chronic, duration: 2 years, oral, histopathology: nonneoplastic) was 0.46 mg/kg-day, the NOAEL (Rattus norvegicus; reproduction developmental, food consumption) was 10 mg/kg-day and the NOEL (Rattus norvegicus; [1]) was 25 mg/kg-day. It also gave an LC50 (Tagia sp.) of 26.5 mg/kg, an LR50 (Adalia sp.) of under 21.9 g/ha and an LR50 (Typhlodromus pyri) of under 2 g/ha.
